Several values for one entry are separate records, joined by “and”; a condition that tells them apart may be missing. Equal entries are not always repeated. Inconclusive results are not listed.

Here are results for 13 molecules from PubChem BioAssay AID220 (DTP/NCI, 2004).

For this assay, the system named is CD8F1 mice, subcutaneous mammary adenocarcinoma, T/C%. Briefly: NCI In Vivo Anticancer Drug Screen. Data for tumor model Mammary Adenocarcinoma CD8F1 (subcutaneous) in CD8F1. The settings on record: higher = larger tumour. An outline of the steps:
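Transplantable tumors were established in mice, animals were dosed with compound or vehicle, and survival or tumor size was then measured in both groups. The treated result was divided by the control result.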

Where [1] appears, read: endpoint: median tumor weight (est.), dose: 12.5 mg/kg/injection, schedule: Q07DX005 (ip), vehicle: saline with Tween-80.
Where [2] appears, read: endpoint: median tumor weight (est.), dose: 25.0 mg/kg/injection, schedule: Q07DX005 (ip), vehicle: saline with Tween-80.
Setting [3] is: endpoint: median tumor weight (est.), dose: 50.0 mg/kg/injection, schedule: Q07DX005 (ip), vehicle: saline with Tween-80.
[4] abbreviates: endpoint: median tumor weight (est.), dose: 100.0 mg/kg/injection, schedule: Q07DX005 (ip), vehicle: saline with Tween-80.
The mark [5] stands for this setting: endpoint: median tumor weight (est.), dose: 200.0 mg/kg/injection, schedule: Q07DX005 (ip), vehicle: saline with Tween-80.
Setting [6] is: endpoint: median tumor weight (est.), dose: 400.0 mg/kg/injection, schedule: Q07DX005 (ip), vehicle: saline with Tween-80.
Where [7] appears, read: endpoint: median tumor weight (est.), dose: 2.0 mg/kg/injection, schedule: Q07DX005 (ip), vehicle: Klucel (hydroxypropylcellulose) (HPC).

Turning to `NC(=S)N/N=C/c1ccc(OC(=O)COc2ccc(Cl)cc2)cn1`, the T/C runs as follows: (endpoint: mean tumor weight, dose: 25.0 mg/kg/injection, schedule: Q07DX008 (ip), vehicle: saline) 100 % of control; (endpoint: mean tumor weight, dose: 50.0 mg/kg/injection, schedule: Q07DX008 (ip), vehicle: saline) 50 % of control; (endpoint: mean tumor weight, dose: 100.0 mg/kg/injection, schedule: Q07DX008 (ip), vehicle: saline) 64 % of control; (endpoint: mean tumor weight, dose: 200.0 mg/kg/injection, schedule: Q07DX008 (ip), vehicle: saline) 60 % of control; (endpoint: mean tumor weight, dose: 400.0 mg/kg/injection, schedule: Q07DX008 (ip), vehicle: saline) 105 % of control; under setting [1], 52 % of control. Further, the T/C under setting [2] was 167 % of control; the T/C under setting [3] is 79 % of control; the T/C under setting [4] was 114 % of control; the T/C under setting [5] was 82 % of control; the T/C under setting [6] is 119 % of control.
As to `NC(Cc1cc([N+](=O)[O-])ccc1CN(CCCl)CCCl)C(=O)O` (configuration not stated), the T/C under setting [7] was 8 % of control.
For `C[C@]12CC[C@@H]3c4ccc(O)cc4CC[C@H]3[C@@H]1CC[C@@H]2O`, the T/C runs as follows: (endpoint: median tumor weight (est.), dose: 6.25 mg/kg/injection, schedule: Q07DX005 (ip), vehicle: Klucel (hydroxypropylcellulose) (HPC)) 97 % of control; (endpoint: median tumor weight (est.), dose: 25.0 mg/kg/injection, schedule: Q07DX005 (ip), vehicle: Klucel (hydroxypropylcellulose) (HPC)) 27 % of control.
On to `CC1=CC(C)(C)Nc2ccc(CSc3ccccc3)cc21`, for which the T/C is 46 % of control (endpoint: median tumor weight change, dose: 50.0 mg/kg/injection, schedule: Q01DX001 (ip), vehicle: saline + Tween-80 + alcohol); 37 % of control (endpoint: median tumor weight change, dose: 62.0 mg/kg/injection, schedule: Q01DX001 (ip), vehicle: DMSO); 37 % of control (endpoint: median tumor weight change, dose: 100.0 mg/kg/injection, schedule: Q01DX001 (ip), vehicle: saline + Tween-80 + alcohol); 38 % of control (endpoint: median tumor weight change, dose: 125.0 mg/kg/injection, schedule: Q01DX001 (ip), vehicle: DMSO); 47 % of control (endpoint: median tumor weight change, dose: 200.0 mg/kg/injection, schedule: Q01DX001 (ip), vehicle: saline + Tween-80 + alcohol); 29 % of control (endpoint: median tumor weight change, dose: 250.0 mg/kg/injection, schedule: Q01DX001 (ip), vehicle: DMSO). Also, the T/C (endpoint: median tumor weight change, dose: 400.0 mg/kg/injection, schedule: Q01DX001 (ip), vehicle: saline + Tween-80 + alcohol) is 46 % of control; the T/C (endpoint: median tumor weight change, dose: 800.0 mg/kg/injection, schedule: Q01DX001 (ip), vehicle: saline + Tween-80 + alcohol) is 32 % of control; the T/C (endpoint: median tumor weight change, dose: 2000.0 mg/kg/injection, schedule: Q01DX001 (ip), vehicle: DMSO) was 61 % of control.
As for `COc1cc([C@@H]2c3cc4c(cc3[C@@H](OC3OC5CO[C@@H](c6cccs6)OC5C(O)C3O)[C@H]3COC(=O)[C@H]23)OCO4)cc(OC)c1O` (some centres not stated), the T/C by setting is: (endpoint: median tumor weight (est.), dose: 2.0 mg/kg/injection, schedule: Q07DX005 (ip), vehicle: suspension in saline) 90 % of control and 103 % of control; (endpoint: median tumor weight (est.), dose: 4.0 mg/kg/injection, schedule: Q07DX005 (ip), vehicle: saline) 23 % of control; (endpoint: median tumor weight (est.), dose: 4.0 mg/kg/injection, schedule: Q07DX005 (ip), vehicle: suspension in saline) 87 % of control and 100 % of control; (endpoint: median tumor weight (est.), dose: 8.0 mg/kg/injection, schedule: Q07DX005 (ip), vehicle: suspension in saline) 81 % of control and 92 % of control; (endpoint: median tumor weight (est.), dose: 16.0 mg/kg/injection, schedule: Q07DX005 (ip), vehicle: saline) 47 % of control; (endpoint: median tumor weight (est.), dose: 32.0 mg/kg/injection, schedule: Q07DX005 (ip), vehicle: saline) 25 % of control. The T/C (endpoint: median tumor weight (est.), dose: 32.0 mg/kg/injection, schedule: Q07DX005 (ip), vehicle: suspension in saline) is 51 % of control and 57 % of control; the T/C (endpoint: median tumor weight change, dose: 20.0 mg/kg/injection, schedule: Q01DX001 (ip), vehicle: suspension in saline) is 96 % of control; the T/C (endpoint: median tumor weight change, dose: 40.0 mg/kg/injection, schedule: Q01DX001 (ip), vehicle: suspension in saline) is 74 % of control; the T/C (endpoint: median tumor weight change, dose: 80.0 mg/kg/injection, schedule: Q01DX001 (ip), vehicle: suspension in saline) was 91 % of control; the T/C (endpoint: median tumor weight change, dose: 160.0 mg/kg/injection, schedule: Q01DX001 (ip), vehicle: suspension in saline) was 117 % of control; the T/C (endpoint: median tumor weight change, dose: 320.0 mg/kg/injection, schedule: Q01DX001 (ip), vehicle: suspension in saline) is 80 % of control.
Turning to `O=C(NC/C(Cl)=C/Cl)Oc1cccc2ccccc12`, the T/C is, setting by setting: (endpoint: mean tumor weight, dose: 0.78 mg/kg/injection, schedule: Q07DX004 (ip), vehicle: saline) 78 % of control; (endpoint: mean tumor weight, dose: 1.56 mg/kg/injection, schedule: Q07DX004 (ip), vehicle: saline) 91 % of control; (endpoint: mean tumor weight, dose: 3.12 mg/kg/injection, schedule: Q07DX004 (ip), vehicle: saline) 112 % of control; (endpoint: mean tumor weight, dose: 6.25 mg/kg/injection, schedule: Q07DX004 (ip), vehicle: saline) 72 % of control; (endpoint: mean tumor weight, dose: 12.5 mg/kg/injection, schedule: Q07DX004 (ip), vehicle: saline) 58 % of control.
In the case of `COC1=C(OC)C(=O)C(C/C=C(\C)CC/C=C(\C)CC/C=C(\C)CC/C=C(\C)CC/C=C(\C)CC/C=C(\C)CC/C=C(\C)CC/C=C(\C)CC/C=C(\C)CCC=C(C)C)=C(C)C1=O`, the T/C under setting [1] was 59 % of control; the T/C under setting [2] was 67 % of control; the T/C under setting [3] is 47 % of control; the T/C under setting [4] was 93 % of control; the T/C under setting [5] is 122 % of control; the T/C under setting [6] is 76 % of control.
Take `O=C1N(CC2CO2)CCN1CC1CO1` (configuration not stated): under “endpoint: median tumor weight change, dose: 125.0 mg/kg/injection, schedule: Q01DX001 (ip), vehicle: suspension in saline”, the T/C was 30 % of control.
In the case of `Cc1cn(C2CC(F)C(CO)O2)c(=O)[nH]c1=O` (configuration not stated), the T/C by setting is: (endpoint: median tumor weight change, dose: 250.0 mg/kg/injection, schedule: Q01DX001 (ip), vehicle: suspension in saline) 71 % of control; (endpoint: median tumor weight change, dose: 500.0 mg/kg/injection, schedule: Q01DX001 (ip), vehicle: suspension in saline) 69 % of control; (endpoint: median tumor weight change, dose: 1000.0 mg/kg/injection, schedule: Q01DX001 (ip), vehicle: suspension in saline) 79 % of control.
On to `COC(=Nc1ccccc1)SSC(C)C`, for which the T/C under setting [4] was 43 % of control and 46 % of control.
Regarding `O=C(CN1CCOCC1)Nc1nc(-c2ccc(Cl)cc2)cs1`, the T/C is, setting by setting: (endpoint: median tumor weight change, dose: 50.0 mg/kg/injection, schedule: Q01DX001 (ip), vehicle: saline with Tween-80) 47 % of control; (endpoint: median tumor weight change, dose: 100.0 mg/kg/injection, schedule: Q01DX001 (ip), vehicle: saline with Tween-80) 20 % of control; (endpoint: median tumor weight change, dose: 200.0 mg/kg/injection, schedule: Q01DX001 (ip), vehicle: saline with Tween-80) 49 % of control; (endpoint: median tumor weight change, dose: 400.0 mg/kg/injection, schedule: Q01DX001 (ip), vehicle: saline with Tween-80) 35 % of control; (endpoint: median tumor weight change, dose: 800.0 mg/kg/injection, schedule: Q01DX001 (ip), vehicle: saline with Tween-80) 28 % of control.
As to `CC1CC(C)CC(C)C(O)/C(C#N)=C/C=C/CC(C2CCCC2C(=O)O)OC(=O)CC(O)C(C)C1` (configuration not stated), the T/C is, setting by setting: (endpoint: median tumor weight (est.), dose: 0.5 mg/kg/injection, schedule: Q07DX005 (ip), vehicle: Klucel (hydroxypropylcellulose) (HPC)) 71 % of control; (endpoint: median tumor weight (est.), dose: 1.0 mg/kg/injection, schedule: Q07DX005 (ip), vehicle: Klucel (hydroxypropylcellulose) (HPC)) 59 % of control; under setting [7], 71 % of control; (endpoint: median tumor weight (est.), dose: 3.0 mg/kg/injection, schedule: Q07DX005 (ip), vehicle: Klucel (hydroxypropylcellulose) (HPC)) 105 % of control; (endpoint: median tumor weight (est.), dose: 4.0 mg/kg/injection, schedule: Q07DX005 (ip), vehicle: Klucel (hydroxypropylcellulose) (HPC)) 114 % of control; (endpoint: median tumor weight (est.), dose: 6.0 mg/kg/injection, schedule: Q07DX005 (ip), vehicle: Klucel (hydroxypropylcellulose) (HPC)) 124 % of control. Moreover, the T/C (endpoint: median tumor weight (est.), dose: 8.0 mg/kg/injection, schedule: Q07DX005 (ip), vehicle: Klucel (hydroxypropylcellulose) (HPC)) is 36 % of control; the T/C (endpoint: median tumor weight (est.), dose: 12.0 mg/kg/injection, schedule: Q07DX005 (ip), vehicle: Klucel (hydroxypropylcellulose) (HPC)) is 102 % of control; the T/C (endpoint: median tumor weight (est.), dose: 16.0 mg/kg/injection, schedule: Q07DX005 (ip), vehicle: Klucel (hydroxypropylcellulose) (HPC)) is 14 % of control.
Consider `Cn1ccc(=Nc2ccc(NC(=O)c3ccc(N=c4ccn(C)c5ccc([N+](=O)[O-])cc45)cc3[N+](=O)[O-])cc2)cc1`, for which the T/C reads like this: under setting [4], 48 % of control; under setting [5], 124 % of control.
